Measurements from PMC2806602 (The Journal of neuroscience : the official journal of the …, 2009).
Positions count from the first letter of the chain named.

Tests used:
Type in all cases: cell-based
GluRδ2^Lc D535C+D782C = target: T1, GluRδ2^Lc D535C+D782C (Rattus norvegicus, UniProt Q63226, A654T/D535C/D782C); assay: Two-electrode voltage-clamp recordings in Xenopus oocytes, GluRδ2^Lc D535C+D782C
T1 sequence (Q63226 24-1007 D535C/A654T/D782C): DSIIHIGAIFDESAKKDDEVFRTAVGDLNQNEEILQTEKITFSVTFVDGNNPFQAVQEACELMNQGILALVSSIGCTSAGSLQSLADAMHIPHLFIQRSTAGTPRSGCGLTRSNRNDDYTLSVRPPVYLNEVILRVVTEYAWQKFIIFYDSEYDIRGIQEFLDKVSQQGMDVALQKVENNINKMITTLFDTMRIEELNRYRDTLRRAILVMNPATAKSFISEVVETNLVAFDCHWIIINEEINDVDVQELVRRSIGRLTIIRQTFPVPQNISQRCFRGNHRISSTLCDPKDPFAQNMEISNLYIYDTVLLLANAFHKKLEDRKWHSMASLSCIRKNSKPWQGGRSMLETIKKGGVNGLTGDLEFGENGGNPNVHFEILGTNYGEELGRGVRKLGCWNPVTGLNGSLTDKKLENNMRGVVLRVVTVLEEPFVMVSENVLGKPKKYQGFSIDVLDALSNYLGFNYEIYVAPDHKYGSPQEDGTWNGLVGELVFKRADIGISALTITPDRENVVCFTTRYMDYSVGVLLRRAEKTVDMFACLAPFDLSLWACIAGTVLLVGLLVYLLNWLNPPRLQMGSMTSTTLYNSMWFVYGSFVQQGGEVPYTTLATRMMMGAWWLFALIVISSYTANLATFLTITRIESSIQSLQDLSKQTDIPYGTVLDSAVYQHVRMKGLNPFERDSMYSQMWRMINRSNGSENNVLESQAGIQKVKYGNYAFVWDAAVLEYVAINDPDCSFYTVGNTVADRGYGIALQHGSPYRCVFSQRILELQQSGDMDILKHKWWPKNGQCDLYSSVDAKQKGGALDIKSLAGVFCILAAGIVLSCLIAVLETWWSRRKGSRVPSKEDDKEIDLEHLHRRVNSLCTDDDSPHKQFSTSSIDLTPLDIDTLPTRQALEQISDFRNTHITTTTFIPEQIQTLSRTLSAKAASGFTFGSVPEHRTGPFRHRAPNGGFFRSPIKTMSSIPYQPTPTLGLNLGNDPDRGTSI

GluRδ2^Lc E531A+D782A = target: T2, GluRδ2^Lc E531A+D782A (Rattus norvegicus, UniProt Q63226, A654T/D782A/E531A); assay: Two-electrode voltage-clamp recordings in Xenopus oocytes, GluRδ2^Lc E531A+D782A
T2 sequence (Q63226 24-1007 E531A/A654T/D782A): T1 sequence (Q63226 24-1007 D535C/A654T/D782C) with E508A, C512D, C759A

GluRδ2^Lc E531C+D782C = target: T3, GluRδ2^Lc E531C+D782C (Rattus norvegicus, UniProt Q63226, A654T/D782C/E531C); assay: Two-electrode voltage-clamp recordings in Xenopus oocytes, GluRδ2^Lc E531C+D782C
T3 sequence (Q63226 24-1007 E531C/A654T/D782C): T1 sequence (Q63226 24-1007 D535C/A654T/D782C) with E508C, C512D

What does the source list for `[Ca+2]` [Ca^2+, calcium]?
Ca^2+ potentiation (relative to baseline) (GluRδ2^Lc D535C+D782C; 3 mM Ca^2+, ± SEM): 0.9 ± 0.01 fold; Ca^2+ potentiation (relative to baseline) (GluRδ2^Lc E531A+D782A; 3 mM Ca^2+, ± SEM): 0.9 ± 0.04 fold; Ca^2+ potentiation (relative to baseline) (GluRδ2^Lc E531C+D782C; 3 mM Ca^2+, ± SEM): 0.9 ± 0.01 fold

Which “D-serine + 0 mM Ca^2+ nH” value (GluRδ2^Lc D535C+D782C; Hill slope, 0 mM Ca^2+) does the source give for `N[C@H](CO)C(=O)O` [D-serine] here?
The value was 0.9.

What about the “D-serine + 3 mM Ca^2+ nH” value (GluRδ2^Lc D535C+D782C; Hill slope, 3 mM Ca^2+) of the same compound?
The value was 1.0.

And the “D-serine + 0 mM Ca^2+ nH” value (GluRδ2^Lc E531A+D782A; Hill slope, 0 mM Ca^2+)?
The value was 2.3.

What about the “D-serine + 3 mM Ca^2+ nH” value (GluRδ2^Lc E531A+D782A; Hill slope, 3 mM Ca^2+) of the same compound?
The value was 2.4.

And the “D-serine + 0 mM Ca^2+ nH” value (GluRδ2^Lc E531C+D782C; Hill slope, 0 mM Ca^2+)?
Its value is 0.8.

What about the “D-serine + 3 mM Ca^2+ nH” value (GluRδ2^Lc E531C+D782C; Hill slope, 3 mM Ca^2+) of the same compound?
The value was 0.8.
